25 molecules from patent publication US8193203B2, “Bicyclic compounds having activity at the CXCR4 receptor” (Allergan, Inc., priority 2008, dated 2012) can be followed below.

The assay deals with T1, human CXCR4 receptor (Homo sapiens, UniProt P61073).
T1 construct: expressed in transfected cells
As to the kind of experiment: Measurement of intracellular Ca+2 responses (FLIPR), antagonism of the SDF-1α response. The class given is cell-based. Particulars: for IC50: HEK-Gqi5 cells stably expressing human CXCR4, Fluo-4 FLIPR, antagonism of SDF-1α 1.9 nM (EC65); for CXCR4 (% Inh): percent antagonism of SDF-1α 1.9 nM (EC65) response, HEK-Gqi5 human CXCR4 cells, value in brackets. The protocol: Measurement of Intracellular Ca^+2 Responses for CXCR4 Compounds
HEK-Gqi5 cells stably expressing the human CXCR4 receptor were utilized for these studies. The growth media for the CXCR4 receptor expressing cell line was DMEM high glucose medium supplemented with 10% fetal bovine serum (FBS), 1% antibiotic-antimycotic, 50 ug/ml hygromycin B, and 400 μg/ml geneticin. Ten thousand cells per well were plated into 384-well poly-D-lysine coated plates one day prior to use. On the day of the experiment, the cells were washed twice with Hank's Balanced Salt Solution supplemented with 20 mM hepes (HBSS/hepes buffer). The cells were then dye loaded with 2 uM Fluo-4 diluted in the HBSS/Hepes buffer and incubated at 37° C. for 40 minutes. Extracellular dye was removed by washing the cell plates four times prior to placing the plates in the FLIPR (Fluorometric Imaging Plate Reader, Molecular Devices). Ligands were diluted in HBSS/Hepes buffer and prepared in 384-well microplates. The positive control, stromal-cell derived factor-1 (SDF-1α), was diluted in HBSS/Hepes buffer with 4 mg/ml fatty acid free bovine serum albumin. Two drug additions were made by the FLIPR. The first drug addition was the test drug in concentrations ranging from 2.44 nM to 40,000 nM. After this addition, fluorescent measurements were taken. Any calcium release in response to this drug addition represents agonist activity of the compounds. The second drug addition was SDF-1α at a final concentration of 1.9 nM (EC65). Fluorescence measurements were also taken after this second drug addition and were used to determine the ability of the test compounds to antagonize the SDF-1α response. Results were expressed as EC50 and efficacy values, as well as IC50 and percent antagonism values. As controls, SDF-1α (CXCR4 agonist) and AMD3100 (CXCR4 antagonist) dose-response curves were also determined in each study.

T1 sequence (P61073 whole entry): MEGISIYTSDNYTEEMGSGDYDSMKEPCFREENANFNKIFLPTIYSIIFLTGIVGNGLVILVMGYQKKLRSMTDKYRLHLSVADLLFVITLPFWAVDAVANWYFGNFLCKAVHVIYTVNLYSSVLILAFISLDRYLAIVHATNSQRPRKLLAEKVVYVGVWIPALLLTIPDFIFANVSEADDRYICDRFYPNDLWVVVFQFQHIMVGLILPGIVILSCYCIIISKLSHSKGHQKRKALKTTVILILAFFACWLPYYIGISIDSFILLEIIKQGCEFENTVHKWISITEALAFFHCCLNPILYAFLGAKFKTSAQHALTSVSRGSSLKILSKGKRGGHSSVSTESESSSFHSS

Turning to `COc1cccc(N(C)C)c1CN1CCC(Nc2nc(NCC3CCCO3)nc3ccccc23)CC1` (centres unmarked) [Compound 98, N4-(1-(2-(Dimethylamino)-6-methoxybenzyl)piperidin-4-yl)-N2-((tetrahydrofuran-2-yl)methyl)quinazoline-2,4-diamine], the “CXCR4 (% Inh)” value was found to be 98%. The IC50 (values in nM) was found to be 624 nM.
On to `COc1cccc(N(C)C)c1CN1CCC(Nc2nc(NCC3CCN(C(=O)OC(C)(C)C)C3)nc3ccccc23)CC1` (centres unmarked) [Compound 106, tert-Butyl 3-((4-(1-(2-(Dimethylamino)-6-methoxybenzyl)piperidin-4-ylamino)quinazolin-2-ylamino)methyl)pyrrolidine-1-carboxylate], for which the “CXCR4 (% Inh)” value is given as 73%. Under “values given in μM”, the IC50 stood at 2300 nM.
“N˜4˜-{1-[2-(Dimethylamino)-6-methoxybenzyl]pyrrolidin-3-yl}-N˜2˜-[3-(dimethylamino)propyl]-6,7-dimethoxyquinazoline-2,4-diamine [Compound 161]”: the “CXCR4 (% Inh)” value worked out at 92%. Moreover, the IC50 (values given in μM) was determined as 1900 nM.
On to `COc1cc2nc(NCCCN(C)C)nc(NCCNCc3c(OC)cccc3N(C)C)c2cc1OC` [Compound 178, N˜4˜-(2-{[2-(Dimethylamino)-6-methoxybenzyl]amino}ethyl)-N˜2˜-[3-(dimethylamino)propyl]-6,7-dimethoxyquinazoline-2,4-diamine], for which the “CXCR4 (% Inh)” value came out at 49%. For the same molecule, the IC50 (values given in μM) is above 10000 nM.
With `COc1cc2nc(NCCCN3CCCC3)nc(NC3CCN(Cc4ccccc4N(C)C)CC3)c2cc1OC` [Compound 33], the “CXCR4 (% Inh)” value is 93%. For the same molecule, the IC50 (values in nM) was 617 nM.
In the case of `CCN(CC)CCNc1nc(NC2CCN(Cc3ccccc3N(C)C)CC2)c2cc(OC)c(OC)cc2n1` [Compound 32], the “CXCR4 (% Inh)” value was 90%. Moreover, 343 nM corresponded to half-maximal inhibition (values in nM) (IC50).
`COc1cccc(N(C)C)c1CN1CCC(Nc2nc(NCCN3CC(C)OC(C)C3)nc3ccccc23)CC1` (centres unmarked) [Compound 95, N4-(1-(2-(Dimethylamino)-6-methoxybenzyl)piperidin-4-yl)-N2-(2-(2,6-dimethylmorpholino)ethyl)quinazoline-2,4-diamine]: the “CXCR4 (% Inh)” value was 98%. Under “values in nM”, this molecule displayed an IC50 of 605 nM.
Consider `COc1cccc(N(C)C)c1CN1CCC(Nc2nc(NCCNC(=O)NC(C)C)nc3ccccc23)CC1` [Compound 126, 1-(2-(4-(1-(2-(Dimethylamino)-6-methoxybenzyl)piperidin-4-ylamino)quinazolin-2-ylamino)ethyl)-3-isopropylurea], for which the “CXCR4 (% Inh)” value is reported as 96%. For the setting “values given in μM”, this molecule gave an IC50 of 2900 nM.
As to `COc1cccc(N(C)C)c1CN1CCCC(Nc2nc(NCCCN(C)C)nc3ccccc23)CC1` (centres unmarked) [Compound 174, N˜4˜-{1-[2-(Dimethylamino)-6-methoxybenzyl]azepan-4-yl}-N˜2˜-[3-(dimethylamino)propyl]quinazoline-2,4-diamine], the “CXCR4 (% Inh)” value is given as 97%. For the setting “values in nM”, 770 nM corresponded to half-maximal inhibition (IC50).
Consider `CCN(CC)CCCNc1nc(NC2CCN(Cc3cccc(C)c3N(C)C)CC2)c2ccccc2n1` [Compound 152, N˜2˜-[3-(Diethylamino)propyl]-N˜4˜-{1-[2-(dimethylamino)-3-methylbenzyl]piperidin-4-yl}quinazoline-2,4-diamine], for which the “CXCR4 (% Inh)” value amounted to 100%. Further, half-maximal inhibition (values given in μM) (IC50) was put at 1400 nM.
With `CCN(CC)CCCNc1nc(NC2CCN(Cc3cccc4ccn(C)c34)CC2)c2ccccc2n1` [Compound 133, N2-(3-(Diethylamino)propyl)-N4-(1-((1-methyl-1H-indol-7-yl)methyl)piperidin-4-yl)quinazoline-2,4-diamine], the “CXCR4 (% Inh)” value is 63%. Moreover, the half-inhibitory concentration (IC50) (values given in μM) was 2200 nM.
On to `COc1cc2nc(NCC(O)CN)nc(NC3CCN(Cc4c(OCCN(C)C)cccc4N(C)C)CC3)c2cc1OC` (centres unmarked) [Compound 196, 1-Amino-3-({4-[(1-{2-(dimethylamino)-6-[2-(dimethylamino)ethoxy]benzyl}piperidin-4-yl)amino]-6,7-dimethoxyquinazolin-2-yl}amino)propan-2-ol], for which the “CXCR4 (% Inh)” value stood at 95%. This molecule also showed an IC50 (values in nM) of 38 nM.
For the molecule `CCN(CC)CCCNc1nc(NC2CCN(Cc3ccccc3[N+](=O)[O-])CC2)c2cc(OC)c(OC)cc2n1` [Compound 65, N2-(3-(Diethylamino)propyl)-6,7-dimethoxy-N4-(1-(2-nitrobenzyl)piperidin-4-yl)quinazoline-2,4-diamine], the “CXCR4 (% Inh)” value amounted to 93%. Where the note is “values given in μM”, the IC50 came to 4900 nM.
Consider `CCN(CC)CCCCNc1nc(NC2CCN(Cc3c(OC)cccc3N(C)C)CC2)c2ccccc2n1` [Compound 66, N2-(4-(Diethylamino)butyl)-N4-(1-(2-(dimethylamino)-6-methoxybenzyl)piperidin-4-yl)quinazoline-2,4-diamine], for which the “CXCR4 (% Inh)” value was found to be 93%. Under “values in nM”, this molecule displayed an IC50 of 200 nM.
Consider `COc1cc2nc(NCCN)nc(NC3CCN(Cc4c(OCCN(C)C)cccc4N(C)C)CC3)c2cc1OC` [Compound 180, N˜2˜-(2-Aminoethyl)-N˜4˜-(1-{2-(dimethylamino)-6-[2-(dimethylamino)ethoxy]benzyl}piperidin-4-yl)-6,7-dimethoxyquinazoline-2,4-diamine], for which the “CXCR4 (% Inh)” value is on record as 94%. In addition, the concentration for half-maximal inhibition (IC50) (values in nM) turned out to be 116 nM.
Regarding `COc1cc2nc(NCCCN)nc(NC3CCN(Cc4c(OCCN(C)C)cccc4N(C)C)CC3)c2cc1OC` [Compound 182, N˜2˜-(3-Aminopropyl)-N˜4˜-(1-{2-(dimethylamino)-6-[2-(dimethylamino)ethoxy]benzyl}piperidin-4-yl)-6,7-dimethoxyquinazoline-2,4-diamine], the “CXCR4 (% Inh)” value is 94%. Moreover, for the setting “values in nM”, the half-maximal inhibitory concentration (IC50) is 47 nM.
In the case of `COc1cccc(N(C)C)c1CN1CCC(Nc2nc(N(CCO)C(C)=O)nc3ccccc23)CC1` [Compound 90, N-(4-(1-(2-(Dimethylamino)-6-methoxybenzyl)piperidin-4-ylamino)quinazolin-2-yl)-N-(2-hydroxyethyl)acetamide], the “CXCR4 (% Inh)” value was 93%. Further, the concentration for half-maximal inhibition (IC50) (values given in μM) is 1500 nM.
As to `CCN(CC)CCCNc1nc(NC2CCN(Cc3c(OC)cccc3N(C)C)CC2)c2cc(OC)c(OC)cc2n1` [Compound 42, N2-(3-(Diethylamino)propyl)-N4-(1-(2-(dimethylamino)-6-methoxybenzyl)piperidin-4-yl)-6,7-dimethoxyquinazoline-2,4-diamine], the “CXCR4 (% Inh)” value is given as 98%. The same molecule came in with a half-maximal inhibitory concentration (IC50) (values in nM) of 179 nM.
Take `COc1cccc(N(C)C)c1CN1CCC(Nc2nc(NCC[C@H]3CCCN3)nc3ccccc23)CC1` [Compound 117, (R)—N-4-(1-(2-(Dimethylamino)-6-methoxybenzyl)piperidin-4-yl)-N2-(2-(pyrrolidin-2-yl)ethyl)quinazoline-2,4-diamine]: the “CXCR4 (% Inh)” value came to 95%. Further, 319 nM corresponded to half-maximal inhibition (values in nM) (IC50).
On to “N˜4˜-{1-[2-(Dimethylamino)-6-methoxybenzyl]pyrrolidin-3-yl}-N˜2˜-[3-(dimethylamino)propyl]-6,7-dimethoxyquinazoline-2,4-diamine [Compound 165]”, for which the “CXCR4 (% Inh)” value was determined as 97%. Besides, for the setting “values in nM”, the IC50 came to 538 nM.
As to `CCOP(=O)(CCCNc1nc(NC2CCN(Cc3c(OC)cccc3N(C)C)CC2)c2ccccc2n1)OCC` [Compound 81, Diethyl 3-(4-(1-(2-(Dimethylamino)-6-methoxybenzyl)piperidin-4-ylamino)quinazolin-2-ylamino)propylphosphonate], the “CXCR4 (% Inh)” value is 99%. This molecule came in with a 50% inhibitory concentration (IC50) (values given in μM) of 1600 nM.
On to `COc1cccc(N(C)C)c1CN1CCC(Nc2nc(N3CCCN(C)CC3)nc3ccccc23)CC1` [Compound 217, N-(1-(2-(Dimethylamino)-6-methoxybenzyl)piperidin-4-yl)-2-(4-methyl-1,4-diazepan-1-yl)quinazolin-4-amine], for which the “CXCR4 (% Inh)” value turned out to be 100%. Further, for the setting “values given in μM”, the IC50 stood at 2100 nM.
Take `COc1cc2nc(NCC3CNC3)nc(NC3CCN(Cc4c(OCCN(C)C)cccc4N(C)C)CC3)c2cc1OC` [Compound 230, N2-(Azetidin-3-ylmethyl)-N4-(1-(2-(dimethylamino)-6-(2-(dimethylamino)ethoxy)benzyl)piperidin-4-yl)-6,7-dimethoxyquinazoline-2,4-diamine]: the “CXCR4 (% Inh)” value came out at 96%. The molecule also came in with a half-inhibitory concentration (IC50) (values in nM) of 56 nM.
For the molecule `COc1cccc(N(C)C)c1CN1CCC(Nc2nc(NCCc3c[nH]cn3)nc3ccccc23)CC1` [Compound 119, N2-(2-(1H-Imidazol-4-yl)ethyl)-N4-(1-(2-(dimethylamino)-6-methoxybenzyl)piperidin-4-yl)quinazoline-2,4-diamine], the “CXCR4 (% Inh)” value is recorded as 96%. In addition, where the note is “values in nM”, 387 nM corresponded to half-maximal inhibition (IC50).
The corresponding values for `COc1cccc(N(C)C)c1CN1CCC(Nc2nc(NCC3CCN(C)C3)nc3ccccc23)CC1` (centres unmarked) [Compound 121, N4-(1-(2-(Dimethylamino)-6-methoxybenzyl)piperidin-4-yl)-N2-((1-methylpyrrolidin-3-yl)methyl)quinazoline-2,4-diamine] are 97% and 380 nM.
